Source: patent US6914045B2, “Glycopeptide antibiotics” (Wyeth Holdings Corporation, priority 2001, dated 2005)
≈ marks a conversion by molar mass, not a printed value. Where two headings read alike, the source gives them in different places.

How the values were obtained:
Assay in all cases: in vitro antibacterial evaluation, MIC by broth dilution
Assay type in all cases: cell-based
Enterococcus sp. = test system: Enterococcus sp.
Outline: (§1)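 Following National Committee for Clinical Laboratory Standards recommendations (M7-A2), susceptibility was measured by dilution in Muller-Hinton II […]. Bacteria were seeded at 5×10^5 CFU/mL against compound concentrations from 64 down to 0.06 μg/mL.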

Staphylococcus sp. = test system: Staphylococcus sp.
Outline: as §1

Streptococcus sp. = test system: Streptococcus sp.
Outline: as §1

Escherichia coli = test system: Escherichia coli
Outline: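 Broth dilution in Muller-Hinton II medium per NCCLS standard M7-A2, with an inoculum of 5×10^5 CFU/mL and antibiotic tested over 64-0.06 μg/mL. MIC was taken as the lowest concentration inhibiting visible growth.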

## CC(c1ccccc1)C1NC(=O)CNC(=O)C(CO)NC(=O)C(C(O)C2CNC(=N)N2C2OC(CO)C(O)C(O)C2O)NC(=O)C(C(O)C2CNC(=N)N2)NC(=O)C(Cc2ccc3oc(-c4ccc(-c5ccccc5)cc4)nc3c2)NC1=O (stereo not drawn) [Example 33, Cyclo[3-[2-([1,1-biphenyl]-4-yl)-1,3-benzoxazol-5-yl]alanyl-3-(2-iminoimidazolidin-4-yl)-seryl-3-(3-hexopyranosyl-2-iminoimidazolidin-4-yl)serylserylglycyl-β-methylphenylalanyl]]
Enterococcus sp.
  MIC Enterococcus avium (GC 4558): 8 µg/mL (≈ 6.97 µM)
  MIC Enterococcus faecalis (ATCC 29212): 32 µg/mL (≈ 27.9 µM)
  MIC Enterococcus faecalis (GC 2242): 16 µg/mL (≈ 13.9 µM)
  MIC Enterococcus faecalis (GC 2691): 16 µg/mL (≈ 13.9 µM)
  MIC Enterococcus faecalis (GC 3059): 32 µg/mL (≈ 27.9 µM)
  MIC Enterococcus faecalis (GC 4552): 16 µg/mL (≈ 13.9 µM)
  MIC Enterococcus faecalis (GC 4553): 16 µg/mL (≈ 13.9 µM)
  MIC Enterococcus faecalis (GC 4554): 16 µg/mL (≈ 13.9 µM)
  MIC Enterococcus faecalis (GC 6189): 16 µg/mL (≈ 13.9 µM)
  MIC Enterococcus faecium (GC 2243): 8 µg/mL (≈ 6.97 µM)
  MIC Enterococcus faecium (GC 4556): 64 µg/mL (≈ 55.7 µM)
  MIC Enterococcus faecium (GC 4557): 4 µg/mL (≈ 3.48 µM)
Staphylococcus sp.
  MIC Coagulase Negative Staphylococcus (GC 4547): 4 µg/mL (≈ 3.48 µM)
  MIC Coagulase Negative Staphylococcus (GC 4548): 4 µg/mL (≈ 3.48 µM)
  MIC Coagulase Negative Staphylococcus (GC 4549): 1 µg/mL (≈ 0.871 µM)
  MIC Coagulase Negative Staphylococcus (GC 4551): 8 µg/mL (≈ 6.97 µM)
  MIC Coagulase Negative Staphylococcus (GC 6257): 4 µg/mL (≈ 3.48 µM)
  MIC Staphylococcus aureus (ATCC 29213): 8 µg/mL (≈ 6.97 µM)
  MIC Staphylococcus aureus (GC 1131): 4 µg/mL (≈ 3.48 µM)
  MIC Staphylococcus aureus (GC 3051): 16 µg/mL (≈ 13.9 µM)
  MIC Staphylococcus aureus (GC 3053): 8 µg/mL (≈ 6.97 µM)
  MIC Staphylococcus aureus (GC 4541): 8 µg/mL (≈ 6.97 µM)
  MIC Staphylococcus aureus (GC 4542): 8 µg/mL (≈ 6.97 µM)
  MIC Staphylococcus aureus (GC 4544): 4 µg/mL (≈ 3.48 µM)
  MIC Staphylococcus aureus (GC 4545): 8 µg/mL (≈ 6.97 µM)
  MIC Staphylococcus aureus-SMITH (GC 4543): 4 µg/mL (≈ 3.48 µM)
  MIC Staphylococcus haemolyticus (GC 4546): 4 µg/mL (≈ 3.48 µM)
Streptococcus sp.
  MIC Streptococcus agalactiae (GC 4564): 32 µg/mL (≈ 27.9 µM)
  MIC Streptococcus pneumoniae (ATCC 6301): 32 µg/mL (≈ 27.9 µM)
  MIC Streptococcus pneumoniae (GC 1894): 32 µg/mL (≈ 27.9 µM)
  MIC Streptococcus pneumoniae (GC 4565): 64 µg/mL (≈ 55.7 µM)
  MIC Streptococcus pyogenes (GC 4563): 16 µg/mL (≈ 13.9 µM)
Escherichia coli
  MIC Escherichia coli (ATCC 25922): 64 µg/mL (≈ 55.7 µM)
  MIC Escherichia coli (GC 4559): 64 µg/mL (≈ 55.7 µM)
  MIC Escherichia coli (GC 4560): 16 µg/mL (≈ 13.9 µM)

## CC(c1ccccc1)C1NC(=O)CNC(=O)C(CO)NC(=O)C(C(O)C2CNC(=N)N2C2OC(CO)C(O)C(O)C2O)NC(=O)C(C(O)C2CNC(=N)N2)NC(=O)C(Cc2ccc3oc(=O)[nH]c3c2)NC1=O (stereo not drawn) [Example 22, Cyclo[3-(2,3-dihydro-2-oxo-1,3-benzoxazol-5-yl)alanyl-3-(2-iminoimidazolidin-4-yl)seryl-3-(3-hexopyranosyl-2-iminoimidazolidin-4-yl)serylserylglycyl-β-methylphenylalanyl]]
Enterococcus sp.; strain ATCC 29212, broth dilution, 18 hours at 35° C.
  MIC Enterococcus faecalis (ATCC 29212): >128 µg/mL
Enterococcus sp.; strain GC 2242, broth dilution, 18 hours at 35° C.
  MIC Enterococcus faecalis (GC 2242): >128 µg/mL
Enterococcus sp.; strain GC 2243, broth dilution, 18 hours at 35° C.
  MIC Enterococcus faecium (GC 2243): >128 µg/mL
Enterococcus sp.; strain GC 2691, broth dilution, 18 hours at 35° C.
  MIC Enterococcus faecalis (GC 2691): >128 µg/mL
Enterococcus sp.; strain GC 3059, broth dilution, 18 hours at 35° C.
  MIC Enterococcus faecalis (GC 3059): >128 µg/mL
Enterococcus sp.; strain GC 4552, broth dilution, 18 hours at 35° C.
  MIC Enterococcus faecalis (GC 4552): >128 µg/mL
Enterococcus sp.; strain GC 4553, broth dilution, 18 hours at 35° C.
  MIC Enterococcus faecalis (GC 4553): >128 µg/mL
Enterococcus sp.; strain GC 4554, broth dilution, 18 hours at 35° C.
  MIC Enterococcus faecalis (GC 4554): >128 µg/mL
Enterococcus sp.; strain GC 4556, broth dilution, 18 hours at 35° C.
  MIC Enterococcus faecium (GC 4556): >128 µg/mL
Enterococcus sp.; strain GC 4557, broth dilution, 18 hours at 35° C.
  MIC Enterococcus faecium (GC 4557): 64 µg/mL (≈ 63.2 µM)
Enterococcus sp.; strain GC 4558, broth dilution, 18 hours at 35° C.
  MIC Enterococcus avium (GC 4558): >128 µg/mL
Enterococcus sp.; strain GC 6189, broth dilution, 18 hours at 35° C.
  MIC Enterococcus faecalis (GC 6189): >128 µg/mL
Staphylococcus sp.; strain ATCC 29213, broth dilution, 18 hours at 35° C.
  MIC Staphylococcus aureus (ATCC 29213): >128 µg/mL
Staphylococcus sp.; strain GC 1131, broth dilution, 18 hours at 35° C.
  MIC Staphylococcus aureus (GC 1131): >128 µg/mL
Staphylococcus sp.; strain GC 3051, broth dilution, 18 hours at 35° C.
  MIC Staphylococcus aureus (GC 3051): >128 µg/mL
Staphylococcus sp.; strain GC 3053, broth dilution, 18 hours at 35° C.
  MIC Staphylococcus aureus (GC 3053): >128 µg/mL
Staphylococcus sp.; strain GC 4541, broth dilution, 18 hours at 35° C.
  MIC Staphylococcus aureus (GC 4541): >128 µg/mL
Staphylococcus sp.; strain GC 4542, broth dilution, 18 hours at 35° C.
  MIC Staphylococcus aureus (GC 4542): >128 µg/mL
Staphylococcus sp.; strain GC 4543, broth dilution, 18 hours at 35° C.
  MIC Staphylococcus aureus-SMITH (GC 4543): >128 µg/mL
Staphylococcus sp.; strain GC 4544, broth dilution, 18 hours at 35° C.
  MIC Staphylococcus aureus (GC 4544): >128 µg/mL
Staphylococcus sp.; strain GC 4545, broth dilution, 18 hours at 35° C.
  MIC Staphylococcus aureus (GC 4545): >128 µg/mL
Staphylococcus sp.; strain GC 4546, broth dilution, 18 hours at 35° C.
  MIC Staphylococcus haemolyticus (GC 4546): >128 µg/mL
Staphylococcus sp.; strain GC 4547, broth dilution, 18 hours at 35° C.
  MIC Coagulase Negative Staphylococcus (GC 4547): >128 µg/mL
Staphylococcus sp.; strain GC 4548, broth dilution, 18 hours at 35° C.
  MIC Coagulase Negative Staphylococcus (GC 4548): 128 µg/mL (≈ 126 µM)
Staphylococcus sp.; strain GC 4549, broth dilution, 18 hours at 35° C.
  MIC Coagulase Negative Staphylococcus (GC 4549): 64 µg/mL (≈ 63.2 µM)
Staphylococcus sp.; strain GC 4551, broth dilution, 18 hours at 35° C.
  MIC Coagulase Negative Staphylococcus (GC 4551): >128 µg/mL
Staphylococcus sp.; strain GC 6257, broth dilution, 18 hours at 35° C.
  MIC Coagulase Negative Staphylococcus (GC 6257): 128 µg/mL (≈ 126 µM)
Streptococcus sp.; strain ATCC 6301, broth dilution, 18 hours at 35° C.
  MIC Streptococcus pneumoniae (ATCC 6301): 8 µg/mL (≈ 7.91 µM)
Streptococcus sp.; strain GC 1894, broth dilution, 18 hours at 35° C.
  MIC Streptococcus pneumoniae (GC 1894): 8 µg/mL (≈ 7.91 µM)
Streptococcus sp.; strain GC 4563, broth dilution, 18 hours at 35° C.
  MIC Streptococcus pyogenes (GC 4563): 32 µg/mL (≈ 31.6 µM)
Streptococcus sp.; strain GC 4564, broth dilution, 18 hours at 35° C.
  MIC Streptococcus agalactiae (GC 4564): 32 µg/mL (≈ 31.6 µM)
Streptococcus sp.; strain GC 4565, broth dilution, 18 hours at 35° C.
  MIC Streptococcus pneumoniae (GC 4565): 8 µg/mL (≈ 7.91 µM)
Escherichia coli; strain ATCC 25922, broth dilution, 18 hours at 35° C.
  MIC Escherichia coli (ATCC 25922): >128 µg/mL
Escherichia coli; strain GC 4559, broth dilution, 18 hours at 35° C.
  MIC Escherichia coli (GC 4559): >128 µg/mL
Escherichia coli; strain GC 4560, broth dilution, 18 hours at 35° C.
  MIC Escherichia coli (GC 4560): >128 µg/mL
